Measurements: patent publication US20240360122A1, “POLYMORPHIC FORMS AND SALTS OF A GLP-1R AGONIST” (Terns (Suzhou) Biotechnology Co., Ltd., priority 2023, published 2024)
Values after ≈ are worked out from the molar mass of the structure shown. Counter-ions that a name gives are not always drawn. Marks after values point to notes of the source that are not given here.

Columns and labels:
[1] = physchem
Experimental: 0.1 M KH2PO4 solution: added 1.36 g of solid KH2PO4 into a 100-mL volumetric flask, dissolve with ultrapure water and dilute to volume. 0.1 M K2HPO4 solution: added 1.74 g of solid K2HPO4 into a 100-mL volumetric flask, dissolve with ultrapure water and dilute to volume.
Transferred 100 mL of 0.1 M K2HPO4 solution and 30 mL of 0.1 M KH2PO4 to a 250-mL beaker and mix well. Adjusted to pH 7.4 with the KH2PO4 solution to obtain the aqueous pH 7.4 buffer. Pre-equilibrated n-octanol and aqueous buffer (phosphate pH 7.4 buffer) by adding 10 mL n-octanol and 10 mL aqueous buffer into a glass vial and keep it rolling for 24 hrs.
Weighed approximately 1.0 mg solids into a 3-mL glass vial which contained 2.0 mL of saturated n-octanol and accelerate dissolution by ultrasound sonication. Added 1.0 mL of complementary saturated aqueous buffer into the vial. Prepare samples in triplicate. Sealed the glass vial and mix on a rotary mixer at 25° C. for 24 hrs.
The phases were separated. The pH of the aqueous phase was measured by pH meter, and the concentrations of compounds in each phase were determined by HPLC. Samples in n-octanol phase were diluted 10 times by ACN. Distribution coefficient, referred to as Dow, was calculated as the concentration of the test compound in the n-octanol phase divided by the corresponding concentration in the aqueous phase.

[2] = Approximate solubility in different solvents at RT; type: physicochemical; conditions: RT; for solubility: organic solvent or mixture
Experimental: For each experiment, approximately 2 mg of sample was added into a 3-mL glass vial. Corresponding solvents were then added stepwise (50/50/200/700/1000 μL) into the vials until the solids were dissolved visually or a total volume of 2 mL was reached. Solubility results summarized in Table 64 to Table 66 were used to guide the solvent selection in polymorph screening design.

[3] = Characterization of Compound 1 freeform forms: form change on storage or drying (XRPD); type: physicochemical
Experimental: Starting from Compound 1 Freeform Type D, polymorph screening experiments were performed under 50 conditions using different solvent-mediated crystallization or solid transition methods. The obtained solids were characterized by XRPD. According to XRPD comparison results, a total of 16 crystal forms were discovered, named as Type A˜P. The characterization results of all the forms were listed in Table 60.
Freeform Type O was obtained after adding anti-solvent toluene into DMSO solution of Freeform Type D and drying at ambient conditions. After drying at RT under vacuum for 1 day, diffraction peaks of Freeform Type K were observed. As Freeform Type K was a DMSO solvate, it is speculated that Freeform Type O was also a DMSO solvate.

[4] = Competitive experiments of Type A and Type B in different solvent system at different temperature; type: physicochemical; conditions: MeOH/MTBE system
[5] = Solid state stability at 25° C./60% RH and 40° C./75% RH for 1 week; type: physicochemical
Experimental: Each sample was added into a glass vial, sealed by parafilm with several holes, and kept under tested conditions. After one week, samples were taken for XRPD and HPLC purity test.

[6] = Hygroscopicity by DVS at 25° C.; type: physicochemical
Experimental: DVS was measured via a SMS (Surface Measurement Systems) DVS Intrinsic. The relative humidity at 25° C. were calibrated against deliquescence point of LiCl, Mg(NO3)2 and KCl.

[7] = Kinetic solubility in water and bio-relevant media (SGF, FaSSIF, FeSSIF) at 37° C.; type: physicochemical; conditions: for S: Solubility: calculated by freeform; for FC: Form change: residual solids by XRPD
Experimental: Add 4 mL of medium (H2O, SGF, FaSSIF and FeSSIF). • Rolled at 37° C. (˜25 rpm). Sampling at 1, 2, 4 and 24 hrs. • At each time-point, sampled 0.8 mL of solution or suspension into a centrifuge tube prior to centrifugation (12000 rpm, 37° C., 5 min) and filtration through 0.45 μm PTFE membrane. • Tested pH and concentration for the filtrate. Analyze residual solids by XRPD.
0.1 g of NaCl and 0.05 g of Triton X-100 were weighed into a 50-mL volumetric flask. Purified water was added to dissolve the solid. 67.5 μL HCl (38%, 12M) was added after the solid was dissolved completely. pH was then adjusted to 1.8 using HCl (1 M) or NaOH (1 M). Purified water was added to the volume.
(§1) 0.17 g of anhydrous NaH2PO4, 0.021 g of NaOH and 0.31 g of NaCl were weighed into a 50-mL volumetric flask. ˜48 mL purified water was added to dissolve the solid. pH was adjusted to 6.5 using 1M HCl or 1M NaOH. Purified water was then added to the volume. 0.11 g of SIF powder was added into the volumetric flask.
as §1, with “0.41 mL” for “0.17 g”, “acetic acid, 0.20” for “anhydrous NaH2PO4, 0.021”, “0.59” for “0.31”, “5.0” for “6.5”, “0.56” for “0.11”

N#Cc1ccc(COc2cccc(C3CCN(Cc4nc5ccc(C(=O)O)cc5n4Cc4cncs4)CC3)n2)c(F)c1 [Freeform Type A]
logP [1]: 4.78 | logD at 24 h ([1]; pH 7.2): 1.96 | solubility ([2]; 1,4-Dioxane, thermodynamic from solid, 1,4-Dioxane): 1900 to 6300 µg/mL (≈ 3.26 to 10.8 mM) | solubility ([2]; 2-MeTHF, thermodynamic from solid): 1900 to 6300 µg/mL (≈ 3.26 to 10.8 mM) | solubility ([2]; ACN, thermodynamic from solid): 1000 to 1900 µg/mL (≈ 1.72 to 3.26 mM) | solubility ([2]; Anisole, thermodynamic from solid): 1100 to 2100 µg/mL (≈ 1.89 to 3.6 mM) | solubility ([2]; CPME, thermodynamic from solid): 1100 to 2100 µg/mL (≈ 1.89 to 3.6 mM) | solubility ([2]; DMSO, thermodynamic from solid): > 40000 µg/mL | solubility ([2]; EtOAc, thermodynamic from solid): 2000 to 6700 µg/mL (≈ 3.43 to 11.5 mM) | Approximate solubility ([2]; H2O): S < 1.1 mg/mL | solubility ([2]; IPA, thermodynamic from solid): 1100 to 2200 µg/mL (≈ 1.89 to 3.78 mM) | solubility ([2]; IPAc, thermodynamic from solid): 1000 to 1900 µg/mL (≈ 1.72 to 3.26 mM) | solubility ([2]; MIBK, thermodynamic from solid): 1000 to 2000 µg/mL (≈ 1.72 to 3.43 mM) | solubility ([2]; MTBE, thermodynamic from solid): < 1000 µg/mL | solubility ([2]; MeOH, thermodynamic from solid): 6700 to 20000 µg/mL (≈ 11.5 to 34.3 mM) | Approximate solubility ([2]; THF): S > 38.0 mg/mL | solubility ([2]; Toluene, thermodynamic from solid): < 1100 µg/mL | solubility ([2]; n-Heptane, thermodynamic from solid): < 1000 µg/mL

N#Cc1ccc(COc2cccc(C3CCN(Cc4nc5ccc(C(=O)O)cc5n4Cc4cncs4)CC3)n2)c(F)c1 [Freeform Type F]
Form change ([3]; after storage at RT): Change to Freeform Type J after storage at RT.

N#Cc1ccc(COc2cccc(C3CCN(Cc4nc5ccc(C(=O)O)cc5n4Cc4cncs4)CC3)n2)c(F)c1 [Freeform Type O]
Form change ([3]; after drying at RT under vacuum): Change to Freeform Type K after drying at RT under vacuum.

N#Cc1ccc(COc2cccc(C3CCN(Cc4nc5ccc(C(=O)O)cc5n4Cc4cncs4)CC3)n2)c(F)c1 [Meglumine salt Type B]
thermodynamic stability, Type A versus Type B [4]: thermodynamically more stable

N#Cc1ccc(COc2cccc(C3CCN(Cc4nc5ccc(C(=O)O)cc5n4Cc4cncs4)CC3)n2)c(F)c1 [Tris salt Type C]
HPLC peak Area, RRT 0.70 ([5]; 25° C./60% RH, 1 week): 0.06% | HPLC peak Area, RRT 0.79 ([5]; 25° C./60% RH, 1 week): 0.23% | HPLC peak Area, RRT 0.80 ([5]; 25° C./60% RH, 1 week): 0.05% | HPLC peak Area, RRT 0.85 ([5]; 25° C./60% RH, 1 week): 0.07% | HPLC peak Area, RRT 0.93 ([5]; 25° C./60% RH, 1 week): 0.09% | Form change ([5]; 25° C./60% RH/Open/1 week): No | Purity ([5]; 25° C./60% RH/Open/1 week): 96.76 Area % | solid-state stability: form change and purity decrease ([5]; 25° C./60% RH/open and 40° C./75% RH/open, 1 week): no form change or significant purity decrease | HPLC peak Area, RRT 0.70 ([5]; 40° C./75% RH, 1 week): 0.05% | HPLC peak Area, RRT 0.79 ([5]; 40° C./75% RH, 1 week): 0.25% | HPLC peak Area, RRT 0.80 ([5]; 40° C./75% RH, 1 week): 0.05% | HPLC peak Area, RRT 0.85 ([5]; 40° C./75% RH, 1 week): <0.05% | HPLC peak Area, RRT 0.93 ([5]; 40° C./75% RH, 1 week): 0.09% | HPLC peak Area, RRT 0.99 ([5]; 40° C./75% RH, 1 week): <0.05% | HPLC peak Area, RRT 1.12 ([5]; 40° C./75% RH, 1 week): 0.05% | Form change ([5]; 40° C./75% RH/Open/1 week): No | Purity ([5]; 40° C./75% RH/Open/1 week): 96.82 Area % | HPLC peak Area, RRT 0.70 ([5]; Initial): 0.05% | HPLC peak Area, RRT 0.79 ([5]; Initial): 0.21% | HPLC peak Area, RRT 0.80 ([5]; Initial): 0.05% | HPLC peak Area, RRT 0.85 ([5]; Initial): 0.08% | HPLC peak Area, RRT 0.93 ([5]; Initial): 0.09% | HPLC peak Area, RRT 1.12 ([5]; Initial): 0.06% | Purity ([5]; Initial): 96.55 Area % | water uptake (DVS) ([6]; 25° C./80% RH): 1.44% | hygroscopicity ([6]; DVS, 25° C.): slightly hygroscopic | Water uptake at 25° C./80% RH ([6]; DVS, 25° C./80% RH): 1.44 wt % | For change after DVS ([6]; XRPD after DVS test): No | form change after DVS test (XRPD) ([6]; after DVS test): no form change | S: Solubility ([7]; FaSSIF, 37° C., 1 hr): 0.16 mg/mL | FC: Form change ([7]; FaSSIF, 37° C., 1 hr): Yes | S: Solubility ([7]; FaSSIF, 37° C., 2 hrs): 0.29 mg/mL | FC: Form change ([7]; FaSSIF, 37° C., 2 hrs): Yes | S: Solubility ([7]; FaSSIF, 37° C., 4 hrs): 0.28 mg/mL | FC: Form change ([7]; FaSSIF, 37° C., 4 hrs): Yes | S: Solubility ([7]; FaSSIF, 37° C., 24 hrs): 0.04 mg/mL | FC: Form change ([7]; FaSSIF, 37° C., 24 hrs): Yes | S: Solubility ([7]; FeSSIF, 37° C., 1 hr): 0.17 mg/mL | FC: Form change ([7]; FeSSIF, 37° C., 1 hr): No | S: Solubility ([7]; FeSSIF, 37° C., 2 hrs): 0.13 mg/mL | FC: Form change ([7]; FeSSIF, 37° C., 2 hrs): No | S: Solubility ([7]; FeSSIF, 37° C., 4 hrs): 0.02* mg/mL | FC: Form change ([7]; FeSSIF, 37° C., 4 hrs): No | FC: Form change ([7]; FeSSIF, 37° C., 24 hrs): Yes | solubility at 24 h ([7]; FeSSIF, 37 °C, pH 5, fessif, thermodynamic from solid, FeSSIF, 37° C., at 24 hrs, read-out: solubility in FeSSIF): 140 µg/mL | S: Solubility ([7]; H2O, 37° C., 1 hr): 0.46 mg/mL | FC: Form change ([7]; H2O, 37° C., 1 hr): No | S: Solubility ([7]; H2O, 37° C., 2 hrs): 0.59 mg/mL | FC: Form change ([7]; H2O, 37° C., 2 hrs): Yes | S: Solubility ([7]; H2O, 37° C., 4 hrs): 2.5 mg/mL | FC: Form change ([7]; H2O, 37° C., 4 hrs): Yes | S: Solubility ([7]; H2O, 37° C., 24 hrs): 0.99 mg/mL | FC: Form change ([7]; H2O, 37° C., 24 hrs): Yes | S: Solubility ([7]; SGF, 37° C., 1 hr): 0.15 mg/mL | FC: Form change ([7]; SGF, 37° C., 1 hr): No | S: Solubility ([7]; SGF, 37° C., 2 hrs): 0.03* mg/mL | FC: Form change ([7]; SGF, 37° C., 2 hrs): No | S: Solubility ([7]; SGF, 37° C., 4 hrs): 0.04* mg/mL | FC: Form change ([7]; SGF, 37° C., 4 hrs): Yes | S: Solubility ([7]; SGF, 37° C., 24 hrs): 0.17 mg/mL | FC: Form change ([7]; SGF, 37° C., 24 hrs): Yes | form change of residual solids (XRPD) after solubility test ([7]; all the media (H2O, SGF, FaSSIF, FeSSIF), after 24 hrs): form change was observed | Kinetic Solubility, 24-h solubility ([7]; in FeSSIF, 24 h, comparison among selected salts and Freeform Type C): 2) In FeSSIF, the 24-h solubility of Tris salt Type C was higher.
